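Dose response: 5 concentrations. Exposure: 48 h. Format: 96-well plates. Endpoint: linear interpolation; highest concentration if not reached. The concentration for 50% growth inhibition is given as GI50.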 The source made the active and inactive calls. Rule as the data show it: active = GI50 up to about 1.1 µM and inactive = higher.
Legend:
Assay in all cases: DTP human tumour cell line panel, 48 h
SK-MEL-2 = tested on: SK-MEL-2
MDA-MB-435 = tested on: MDA-MB-435
UACC-257 = tested on: UACC-257
SF-268 = tested on: SF-268
HT-29 = tested on: HT-29
CAKI-1 = tested on: CAKI-1
HCT-15 = tested on: HCT-15
OVCAR-5 = tested on: OVCAR-5
CCRF-CEM = tested on: CCRF-CEM
T47D = tested on: T47D
NCI-H23 = tested on: NCI-H23
HL-60 = tested on: HL-60
SK-OV-3 = tested on: SK-OV-3
SW-620 = tested on: SW-620
K562 = tested on: K562
BT-549 = tested on: BT-549
HCT-116 = tested on: HCT-116
SF-539 = tested on: SF-539
LOX IMVI = tested on: LOX IMVI
SK-MEL-28 = tested on: SK-MEL-28

| Compound | GI50 (SK-MEL-2) | GI50 (MDA-MB-435) | GI50 (UACC-257) | GI50 (SF-268) | GI50 (HT-29) | GI50 (CAKI-1) | GI50 (HCT-15) | GI50 (OVCAR-5) | GI50 (CCRF-CEM) | GI50 (T47D) | GI50 (NCI-H23) | GI50 (HL-60) | GI50 (SK-OV-3) | GI50 (SW-620) | GI50 (K562) | GI50 (BT-549) | GI50 (HCT-116) | GI50 (SF-539) | GI50 (LOX IMVI) | GI50 (SK-MEL-28) |
| --- | --- | --- | --- | --- | --- | --- | --- | --- | --- | --- | --- | --- | --- | --- | --- | --- | --- | --- | --- | --- |
| CC1=NN2C(=N)/C(=C/c3ccc(F)cc3)C(=O)N=C2S1 | > 100 µM (inactive) | > 100 µM (inactive) | > 100 µM (inactive) | > 100 µM (inactive) | > 100 µM (inactive) | > 100 µM (inactive) | > 100 µM | > 100 µM (inactive) | > 100 µM (inactive) | > 100 µM (inactive) | > 100 µM (inactive) | > 100 µM (inactive) | > 100 µM (inactive) | > 100 µM (inactive) | > 100 µM (inactive) | > 100 µM (inactive) | > 100 µM (inactive) | > 100 µM (inactive) | > 100 µM (inactive) | > 100 µM (inactive) |
| CC[C@@]12C=CC(=S)N(CCSc3ccccc3)[C@@H]1c1c(n(S(=O)(=O)c3ccc(OC)cc3)c3ccccc13)CC2 | > 100 µM (inactive) | > 100 µM (inactive) | > 100 µM (inactive) | > 100 µM (inactive) | > 100 µM (inactive) | > 100 µM (inactive) | > 100 µM | > 100 µM (inactive) | > 100 µM (inactive) | > 100 µM (inactive) | > 100 µM (inactive) | > 100 µM (inactive) | > 100 µM (inactive) | > 100 µM (inactive) | > 100 µM (inactive) | > 100 µM (inactive) | > 100 µM (inactive) | > 100 µM (inactive) | > 100 µM (inactive) | > 100 µM (inactive) |
| COC(=O)[C@@H](NS(=O)(=O)CC12CCC(CC1)C2(C)C)C(C)(C)C | > 100 µM (inactive) | > 100 µM (inactive) | > 100 µM (inactive) | > 100 µM (inactive) | > 100 µM (inactive) | > 100 µM (inactive) | > 100 µM | > 100 µM (inactive) | > 100 µM (inactive) | > 100 µM (inactive) | > 100 µM (inactive) | > 100 µM (inactive) | > 100 µM (inactive) | > 100 µM (inactive) | > 100 µM (inactive) | > 100 µM (inactive) | > 100 µM (inactive) | > 100 µM (inactive) | > 100 µM (inactive) | > 100 µM (inactive) |
| O=[N+]([O-])c1cccnc1NCC1(CO)CC(Cc2ccccc2)C1 (stereo not given) | > 100 µM (inactive) | > 100 µM (inactive) | > 100 µM (inactive) | > 100 µM (inactive) | > 100 µM (inactive) | > 100 µM (inactive) | > 100 µM | > 100 µM (inactive) | > 100 µM (inactive) | > 100 µM (inactive) | > 100 µM (inactive) | > 100 µM (inactive) | > 100 µM (inactive) | > 100 µM (inactive) | > 100 µM (inactive) | > 100 µM (inactive) | > 100 µM (inactive) | > 100 µM (inactive) | > 100 µM (inactive) | > 100 µM (inactive) |
| COC(=O)[C@]12CC[C@H]3CC[C@H]([C@H]31)[C@H](c1ccccc1)N2 | 15.2 µM (inactive) | 18.3 µM (inactive) | 15.1 µM (inactive) | 19.6 µM (inactive) | 15.1 µM (inactive) | 17.7 µM (inactive) | 18.2 µM | 17.3 µM (inactive) | 21.4 µM (inactive) | 16.4 µM (inactive) | 16.8 µM (inactive) | 19.1 µM (inactive) | 25.4 µM (inactive) | 22.2 µM (inactive) | 14.2 µM (inactive) | 18.4 µM (inactive) | 15.6 µM (inactive) | 16.5 µM (inactive) | 17.3 µM (inactive) | 21.9 µM (inactive) |
